In US20060063759A1, “Tricyclic steroid hormone nuclear receptor modulators” (priority 2002, published 2006) one finds Ki data, which are given here for 39 molecules.

Broadly, the Ki is the dissociation constant of the complex between target and ligand, obtained from inhibition or displacement.

Read-outs that look alike come from different tables or passages of the source.

For one experiment, the target named is T1, human MR (Homo sapiens, UniProt P08235).
T1 construct: The full length human MR gene is cloned from a human kidney or human brain cDNA library; His tag from the pAcHLT vector (own knowledge); made in house; host or cells: Sf9 insect cells (baculovirus, pAcHLT transfer vector)
T1 sequence (P08235 1-984): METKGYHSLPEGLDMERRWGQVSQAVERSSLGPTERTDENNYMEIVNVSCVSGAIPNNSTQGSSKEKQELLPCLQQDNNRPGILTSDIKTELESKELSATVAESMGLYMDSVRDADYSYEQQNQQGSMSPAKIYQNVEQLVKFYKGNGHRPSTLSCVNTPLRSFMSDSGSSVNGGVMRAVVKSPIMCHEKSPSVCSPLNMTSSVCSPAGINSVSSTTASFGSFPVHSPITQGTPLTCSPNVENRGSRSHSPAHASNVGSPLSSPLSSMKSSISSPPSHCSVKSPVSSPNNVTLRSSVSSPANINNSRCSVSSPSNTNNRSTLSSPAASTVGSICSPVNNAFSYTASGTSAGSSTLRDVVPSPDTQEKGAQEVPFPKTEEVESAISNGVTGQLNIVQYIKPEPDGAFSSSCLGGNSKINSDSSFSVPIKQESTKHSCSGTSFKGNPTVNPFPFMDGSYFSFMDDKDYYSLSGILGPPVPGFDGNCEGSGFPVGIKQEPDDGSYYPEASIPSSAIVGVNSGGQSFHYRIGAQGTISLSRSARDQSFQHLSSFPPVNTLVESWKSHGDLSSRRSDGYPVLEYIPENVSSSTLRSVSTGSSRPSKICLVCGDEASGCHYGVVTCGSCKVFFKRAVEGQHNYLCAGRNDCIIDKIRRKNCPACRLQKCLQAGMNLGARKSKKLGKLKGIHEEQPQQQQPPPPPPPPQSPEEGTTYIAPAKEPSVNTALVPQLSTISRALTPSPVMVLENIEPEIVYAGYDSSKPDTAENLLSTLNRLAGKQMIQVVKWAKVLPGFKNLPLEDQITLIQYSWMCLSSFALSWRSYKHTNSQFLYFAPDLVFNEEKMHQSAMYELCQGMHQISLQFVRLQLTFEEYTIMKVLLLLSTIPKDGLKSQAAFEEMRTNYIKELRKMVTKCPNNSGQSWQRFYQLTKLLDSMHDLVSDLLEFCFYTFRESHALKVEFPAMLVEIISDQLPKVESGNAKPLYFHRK
Nature of the experiment: Mineralocorticoid Receptor Binding Assay ([3H]-aldosterone). The gist of the method:
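Receptor source: freeze-thaw lysate of baculovirus-infected Sf9 cells carrying full-length human MR, 20-25 μg protein. Incubation ~16 h at 4 °C with shaking, pH 7.5 buffer containing 30 mM sodium molybdate and 10% glycerol.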

The target of the next experiment is T2, glucocorticoid receptor (Homo sapiens, UniProt P04150).
T2 construct: containing 50-200 ug of A549 cell extract and 1.86 nM [^3H]-dexamethasone; host or cells: A549 human lung epithelial cells (sonicated cell extract)
T2 sequence (P04150 1-777): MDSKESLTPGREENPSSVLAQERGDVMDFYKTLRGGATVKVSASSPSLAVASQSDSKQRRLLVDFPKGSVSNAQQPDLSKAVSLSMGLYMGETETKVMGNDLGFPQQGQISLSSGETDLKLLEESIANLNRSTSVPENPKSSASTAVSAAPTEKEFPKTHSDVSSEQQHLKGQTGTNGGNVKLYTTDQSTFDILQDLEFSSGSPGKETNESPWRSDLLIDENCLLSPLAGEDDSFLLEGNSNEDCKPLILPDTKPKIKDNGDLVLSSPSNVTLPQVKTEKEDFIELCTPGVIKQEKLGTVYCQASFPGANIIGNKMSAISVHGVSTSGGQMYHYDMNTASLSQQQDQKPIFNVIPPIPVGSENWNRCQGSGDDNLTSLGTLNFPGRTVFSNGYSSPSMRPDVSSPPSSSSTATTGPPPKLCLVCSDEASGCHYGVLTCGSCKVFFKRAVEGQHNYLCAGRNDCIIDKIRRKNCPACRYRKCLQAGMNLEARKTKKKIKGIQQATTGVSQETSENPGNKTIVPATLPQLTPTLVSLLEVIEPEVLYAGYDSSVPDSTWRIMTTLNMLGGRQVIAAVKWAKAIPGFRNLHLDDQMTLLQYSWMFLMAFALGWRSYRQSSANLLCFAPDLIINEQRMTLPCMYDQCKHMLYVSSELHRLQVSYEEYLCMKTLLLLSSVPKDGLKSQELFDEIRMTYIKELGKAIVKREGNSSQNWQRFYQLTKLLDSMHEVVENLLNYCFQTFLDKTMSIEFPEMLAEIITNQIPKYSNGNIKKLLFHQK
The experiment in a line: Glucocorticoid Receptor Binding Assay ([3H]-dexamethasone, A549 cell extract). The settings on record: [3H]-dexamethasone binding, read-out: GR Ki. The procedure, abridged: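 Displacement of [3H]-dexamethasone (1.86 nM) from glucocorticoid receptor in sonicated A549 lung epithelial cell extracts, 16 h at 4 °C, pH 7.2 molybdate-containing buffer. Bound radioactivity was scintillation-counted after charcoal/dextran stripping of free ligand.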

The mark [1] stands for this setting: [3H]-aldosterone binding, human MR expressed in Sf9 cells, read-out: MR Ki.

`CCC(=C1c2ccccc2CCc2cc(C)ccc21)c1cccc(NS(C)(=O)=O)c1` [Example 774]: the Ki on human MR (setting [1]) and at glucocorticoid receptor was below 500 nM throughout.

`CC(=C1c2ccc(F)cc2CCc2cc(F)ccc21)c1cccc(NS(C)(=O)=O)c1` [Example 775]: the Ki on human MR (setting [1]) and on glucocorticoid receptor was below 500 nM each time.

Take `CCC(=C1c2ccc(F)cc2CCc2cc(F)ccc21)c1cccc(NS(C)(=O)=O)c1` [Example 776]: the Ki at human MR (setting [1]) and on glucocorticoid receptor was below 500 nM in each case.

With `CC(=C1c2ccc(Cl)cc2CCc2cc(Cl)ccc21)c1cccc(NS(C)(=O)=O)c1` [Example 777], the Ki at human MR (setting [1]) and on glucocorticoid receptor was below 500 nM in each case.

Turning to `CCC(=C1c2ccc(Cl)cc2CCc2cc(Cl)ccc21)c1cccc(NS(C)(=O)=O)c1` [Example 778], the Ki on human MR (setting [1]) and at glucocorticoid receptor was below 500 nM throughout.

`CC/C(=C1\c2ccccc2CCc2cc(C)ccc21)c1cccc(NS(C)(=O)=O)c1` [Example 779]: the Ki at human MR (setting [1]) and at glucocorticoid receptor was below 500 nM each time.

As for `CC/C(=C1/c2ccccc2CCc2cc(C)ccc21)c1cccc(NS(C)(=O)=O)c1` [Example 780], the Ki at human MR (setting [1]) and at glucocorticoid receptor was below 500 nM throughout.

In the case of `CC(C)CC(=C1c2ccccc2CCc2ccccc21)c1cccc(NS(C)(=O)=O)c1` [Example 783], the Ki on human MR (setting [1]) and on glucocorticoid receptor was below 500 nM throughout.

As to `C/C(=C1\c2ccccc2COc2cc(C)ccc21)c1cccc(NS(C)(=O)=O)c1` [Example 784], the Ki at human MR (setting [1]) and at glucocorticoid receptor was below 500 nM each time.

For `C/C(=C1\c2ccccc2COc2cc(C)c(Br)cc21)c1cccc(NS(C)(=O)=O)c1` [Example 785], the Ki on human MR (setting [1]) and at glucocorticoid receptor was below 500 nM in each case.

Consider `C/C(=C1/c2ccccc2COc2cc(C)ccc21)c1cccc(NS(C)(=O)=O)c1` [Example 786], for which the Ki on human MR (setting [1]) and at glucocorticoid receptor was below 500 nM in each case.

For the molecule `C/C(=C1\c2ccccc2CCc2c(F)cccc21)c1cccc(NS(C)(=O)=O)c1` [Example 787], the Ki at human MR (setting [1]) and on glucocorticoid receptor was below 500 nM throughout.

On to `C/C(=C1/c2ccccc2COc2c(F)cccc21)c1cccc(NS(C)(=O)=O)c1` [Example 788], for which the Ki at human MR (setting [1]) and on glucocorticoid receptor was below 500 nM in each case.

With `C/C(=C1\c2ccccc2COc2ccc(F)cc21)c1cccc(NS(C)(=O)=O)c1` [Example 789], the Ki on human MR (setting [1]) and at glucocorticoid receptor was below 500 nM in each case.

`C/C(=C1\c2cc(F)ccc2COc2ccccc21)c1cccc(NS(C)(=O)=O)c1` [Example 790]: the Ki on human MR (setting [1]) and at glucocorticoid receptor was below 500 nM throughout.

Consider `C/C(=C1\c2ccccc2CCc2cc(Cl)ccc21)c1cccc(NS(C)(=O)=O)c1` [Example 793], for which the Ki at human MR (setting [1]) and at glucocorticoid receptor was below 500 nM in each case.

Consider `C/C(=C1/c2ccccc2CCc2cc(Cl)ccc21)c1cccc(NS(C)(=O)=O)c1` [Example 794], for which the Ki at human MR (setting [1]) and on glucocorticoid receptor was below 500 nM in each case.

Take `C/C(=C1\c2ccccc2COc2ccccc21)c1cccc(NS(C)(=O)=O)c1` [Example 795]: the Ki on human MR (setting [1]) and at glucocorticoid receptor was below 500 nM in each case.

In the case of `C/C(=C1/c2ccccc2COc2ccccc21)c1cccc(NS(C)(=O)=O)c1` [Example 796], the Ki on human MR (setting [1]) and on glucocorticoid receptor was below 500 nM each time.

With `C/C(=C1/c2ccc(Cl)cc2COc2ccccc21)c1cccc(NS(C)(=O)=O)c1` [Example 797], the inhibition constant (Ki) on human MR (setting [1]) and at glucocorticoid receptor was below 500 nM in each case.

As for `C/C(=C1\c2ccc(Cl)cc2COc2ccccc21)c1cccc(NS(C)(=O)=O)c1` [Example 798], the Ki on human MR (setting [1]) and on glucocorticoid receptor was below 500 nM in each case.

As to `CC/C(=C1\c2ccccc2COc2ccccc21)c1cccc(NS(C)(=O)=O)c1` [Example 799], the Ki at human MR (setting [1]) and on glucocorticoid receptor was below 500 nM each time.

Turning to `CC/C(=C1/c2ccccc2COc2ccccc21)c1cccc(NS(C)(=O)=O)c1` [Example 800], the Ki at human MR (setting [1]) and on glucocorticoid receptor was below 500 nM throughout.

For `CCC/C(=C1\c2ccccc2COc2ccccc21)c1cccc(NS(C)(=O)=O)c1` [Example 801], the Ki at human MR (setting [1]) and on glucocorticoid receptor was below 500 nM throughout.

`CCC/C(=C1/c2ccccc2COc2ccccc21)c1cccc(NS(C)(=O)=O)c1` [Example 802]: the Ki on human MR (setting [1]) and at glucocorticoid receptor was below 500 nM each time.

On to `C/C(=C1/c2ccc(Cl)cc2COc2cc(F)ccc21)c1cccc(NS(C)(=O)=O)c1` [Example 803], for which the Ki on human MR (setting [1]) and at glucocorticoid receptor was below 500 nM in each case.

For the molecule `C/C(=C1\c2ccc(Cl)cc2COc2cc(F)ccc21)c1cccc(NS(C)(=O)=O)c1` [Example 804], the Ki at human MR (setting [1]) and on glucocorticoid receptor was below 500 nM each time.

For the molecule `CS(=O)(=O)Nc1cccc(/C(F)=C2\c3ccccc3COc3ccccc32)c1` [Example 806], the Ki on human MR (setting [1]) and on glucocorticoid receptor was below 500 nM throughout.

Consider `C/C(=C1/c2ccccc2COc2cc(F)ccc21)c1cccc(NS(C)(=O)=O)c1` [Example 807], for which the Ki on human MR (setting [1]) and on glucocorticoid receptor was below 500 nM throughout.

With `C/C(=C1\c2ccccc2COc2cc(F)ccc21)c1cccc(NS(C)(=O)=O)c1` [Example 808], the Ki at human MR (setting [1]) and at glucocorticoid receptor was below 500 nM in each case.

Turning to `C/C(=C1/c2ccc(F)cc2COc2cc(F)ccc21)c1cccc(NS(C)(=O)=O)c1` [Example 809], the Ki at human MR (setting [1]) and on glucocorticoid receptor was below 500 nM throughout.

Turning to `C/C(=C1\c2ccc(F)cc2COc2cc(F)ccc21)c1cccc(NS(C)(=O)=O)c1` [Example 810], the Ki on human MR (setting [1]) and on glucocorticoid receptor was below 500 nM in each case.

For `CC/C(=C1\c2ccccc2COc2cc(F)ccc21)c1cccc(NS(C)(=O)=O)c1` [Example 811], the Ki on human MR (setting [1]) and at glucocorticoid receptor was below 500 nM each time.

For `CC/C(=C1/c2ccccc2COc2cc(F)ccc21)c1cccc(NS(C)(=O)=O)c1` [Example 812], the Ki at human MR (setting [1]) and on glucocorticoid receptor was below 500 nM each time.

Regarding `C/C(=C1\c2ccccc2COc2cc(OCC3CC3)ccc21)c1cccc(NS(C)(=O)=O)c1` [Example 813], the Ki at human MR (setting [1]) and on glucocorticoid receptor was below 500 nM throughout.

Take `C/C(=C1/c2ccccc2COc2cc(OCC3CC3)ccc21)c1cccc(NS(C)(=O)=O)c1` [Example 814]: the Ki at human MR (setting [1]) and at glucocorticoid receptor was below 500 nM each time.

Consider `COc1ccc2c(c1)COc1ccccc1/C2=C(/C)c1cccc(NS(C)(=O)=O)c1` [Example 817], for which the Ki on human MR (setting [1]) and on glucocorticoid receptor was below 500 nM each time.

Take `COc1ccc2c(c1)COc1ccccc1/C2=C(\C)c1cccc(NS(C)(=O)=O)c1` [Example 818]: the Ki at human MR (setting [1]) and on glucocorticoid receptor was below 500 nM each time.

`COc1ccc2c(c1)COc1cc(F)ccc1/C2=C(/C)c1cccc(NS(C)(=O)=O)c1` [Example 819]: the Ki on human MR and on glucocorticoid receptor was below 500 nM each time.
